The text below walks through data of patent US20060069132A1, “Azolecarboxamide herbicides” (priority 2004, published 2006).

Structures are written as SMILES.

One test deals with bipinnate beggarticks. As to the kind of experiment: Test E pre-/postemergence herbicide test. In kind it is in vivo, Bidens bipinnata. As to conditions: Preemergence. The text has this:
Seeds of plant species selected from bipinnate beggarticks (Bidens bipinnata L.), hairy beggarticks (Bidens radiata Thuill.), bermudagrass (Cynodon dactylon (L.) Pers.), Surinam grass (Urochloa decumbens (Staph) R. D. Webster, previously named Brachiaria decumbens Stapf), large crabgrass (Digitaria sanguinalis (L.) Scop.), green foxtail (Setaria viridis (L.) P. Beauv.), goosegrass (Eleusine indica (L.) Gaertn.), johnsongrass (Sorghum halepense (L.) Pers.), kochia (Kochia scoparia (L.) Schrad.), pitted morningglory (Ipomoea lacunosa L.), purple nutsedge (Cyperus rotundus L.), common ragweed (Ambrosia elatior L.), mustard (Brassica nigra (L.) W. D. J. Koch), guineagrass (Panicum maximum Jacq.), dallisgrass (Paspalum dilatatum Poir.), barnyardgrass (Echinochloa crus-galli (L). P. Beauv.), southern sandbur (Cenchrus echinatus L.), common sowthistle (Sonchus oleraceous L.), prickly sida (Sida spinosa L.), Italian ryegrass (Lolium multiflorum Lam.), common purslane (Portulaca oleracea L.), broadleaf signalgrass (Brachiaria platyphylla (Griseb.) Nash), common groundsel (Senecio vulgaris L.), common chickweed (Stellaria media (L.) Vill/Cyr.), tropical spiderwort (Commelina benghalensis L.), annual bluegrass (Poa annua L.), downy bromegrass (Bromus tectorum L.), itchgrass (Rottboellia cochinchinensis (L.) L.f.), quackgrass (Elytrigia repens (L.) Nevski), Canada horseweed (Erigeron Canadensis L.), field bindweed (Convolvulus arvensis L.), spotted spurge (Euphorbia maculata L.), common mallow (Malva sylvestris (=s silvestris) L.), and Russian thistle (Salsola kali L. ssp. Ruthenica (Iljin) Soo) were planted and treated preemergence with test chemicals formulated in a non-phytotoxic solvent mixture which included a surfactant.
At the same time, plants selected from these weed species were treated with postemergence applications of some of the test chemicals formulated in the same manner. Plants ranged in height from 2 to 18 cm (1- to 4-leaf stage) for postemergence treatments. Treated plants and controls were maintained in a greenhouse for 12 to 14 days, after which time all species were compared to controls and visually evaluated. Plant response ratings, summarized in Table E, are based on a scale of 0 to 100 where 0 is no effect and 100 is complete control. A dash (-) response means no test result.

A further test has as its system dallisgrass. As to the kind of experiment: Test E pre-/postemergence herbicide test. The format is in vivo, Paspalum dilatatum. To be noted: Preemergence. In outline: (§1)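 Greenhouse response scored visually 12 to 14 days after treatment versus controls, 0 meaning no effect and 100 complete control. Compounds, formulated with surfactant in a non-phytotoxic solvent blend, were sprayed either preemergence after sowing or postemergence at the 1- to 4-leaf stage (2 to 18 cm).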

Test [1] deals with smallflower umbrella sedge. As to the kind of experiment: Test D flooded paddy test. In kind it is in vivo, Cyperus difformis. As to conditions: 21 days, scale 0 to 100. The text has this: (§2) Three plastic pots (ca. 16-cm diameter) per rate were partially filled with sterilized Tama silt loam soil comprising a 35:50:15 ratio of sand, silt and clay and 2.6% organic matter. Separate plantings for each of the three pots were as follows. Seeds from the U.S. of ducksalad (Heteranthera limosa (Sw.) Willd.), smallflower umbrella sedge (Cyperus difformis L.) and purple redstem (Ammannia coccinea Rottb.), were planted into one 16-cm pot for each rate. Seeds from the U.S. of rice flatsedge (Cyperus iria L.), bearded sprangletop (Leptochloa fascicularis (Lam.) Gray), one stand of 9 or 10 water seeded rice seedlings (Oryza sativa L. cv. ‘Japonica—M202’), and one stand of 6 transplanted rice seedlings (Oryza sativa L. cv. ‘Japonica—M202’) were planted into one 16-cm pot for each rate. Seeds from the U.S. of barnyardgrass (Echinochloa crus-galli (L.) Beauv.), late watergrass (Echinochloa oryzicola Vasinger), early watergrass (Echinochloa oryzoides (Ard.) Fritsch) and junglerice (Echinochloa colona (L.) Link) were planted into one 16-cm pot for each rate. Plantings were sequential so that crop and weed species were at the 2.0 to 2.5-leaf stage at time of treatment.
(§3) Potted plants were grown in a greenhouse with day/night temperature settings of 29.5/26.7° C., and supplemental balanced lighting was provided to maintain a 16-hour photoperiod. Test pots were maintained in the greenhouse until test completion.
(§4) At time of treatment, test pots were flooded to 3 cm above the soil surface, treated by application of test compounds directly to the paddy water, and then maintained at that water depth for the duration of the test. Effects of treatments on rice and weeds were visually evaluated by comparison to untreated controls after 21 days. Plant response ratings are reported on a 0 to 100 scale; where 0 is no effect and 100 is complete control. A dash (-) response means no test result.

The subject of a further test is rice flatsedge. The experiment in a line: Test D flooded paddy test. In kind it is in vivo, Cyperus iria. As to conditions: 21 days, scale 0 to 100.
Source text: as §2, §3, §4

The next test concerns bearded sprangletop. The experiment in a line: Test D flooded paddy test. To be noted: 21 days, scale 0 to 100. The format is in vivo, Leptochloa fascicularis.
Source text: as §2, §3, §4

The next test relates to late watergrass. As to the kind of experiment: Test D flooded paddy test. To be noted: 21 days, scale 0 to 100. The format is in vivo, Echinochloa oryzicola.
Source text: as §2, §3, §4

The test system of the next test is junglerice. The experiment in a line: Test D flooded paddy test. In kind it is in vivo, Echinochloa colona. To be noted: 21 days, scale 0 to 100.
Source text: as §2, §3, §4

The test system of another test is Russian thistle. As to the kind of experiment: Test E pre-/postemergence herbicide test. To be noted: Preemergence, 125 g ai/ha; scale 0 to 100. In kind it is in vivo, Salsola kali. In outline:
as §1

Setting [2] is: 250 g ai/ha, scale 0 (no effect) to 100 (complete control).

Take `CCc1nn(C(C)C)nc1C(=O)Nc1cccc(C(=O)N(C)CC)c1` [Compound 386]: the “Plant response rating, Beggarticks, Bip.” value with bipinnate beggarticks (setting [2]) was 40. Further, the “Plant response rating, Dallisgrass” value with dallisgrass (125 g ai/ha, scale 0 to 100) is 70; in the test on dallisgrass (setting [2]) it was 75.

In the case of `CCn1nc(C(C)(C)C)cc1C(=O)Nc1cc(C(=O)NCC2CC2)ccn1` [Compound 155], the “Plant response rating, Sedge, Umbrella” value in test [1] (32 g ai/ha) turned out to be 30; in test [1] (64 g ai/ha), 65; in test [1] (125 g ai/ha), 75; in test [1] (250 g ai/ha), 75; in test [1] (500 g ai/ha), 80. Moreover, the “Plant response rating, Flatsedge, Rice” value is 0 in the test on rice flatsedge (32 g ai/ha); 0 in the test with rice flatsedge (64 g ai/ha); 30 in the test with rice flatsedge (125 g ai/ha); 60 in the test on rice flatsedge (250 g ai/ha); 70 with rice flatsedge (500 g ai/ha). The “Plant response rating, Sprangletop, Bearded” value amounted to 30 in the test on bearded sprangletop (32 g ai/ha); 30 with bearded sprangletop (64 g ai/ha); 30 in the test on bearded sprangletop (125 g ai/ha); 40 in the test with bearded sprangletop (250 g ai/ha); 75 in the test with bearded sprangletop (500 g ai/ha). Moreover, the “Plant response rating, Watergrass, Late” value in the test with late watergrass (32 g ai/ha) is recorded as 0; with late watergrass (64 g ai/ha), 0; in the test with late watergrass (125 g ai/ha) it was 20; in the test on late watergrass (250 g ai/ha), 30; with late watergrass (500 g ai/ha) it was 60. Also, the “Plant response rating, Junglerice” value is given as 20 with junglerice (32 g ai/ha); 40 in the test with junglerice (64 g ai/ha); 40 in the test on junglerice (125 g ai/ha); 40 with junglerice (250 g ai/ha); 65 in the test with junglerice (500 g ai/ha).

Consider `CCc1nn(C(C)C)nc1C(=O)Nc1cccc(C(=O)N2CCCCC2)c1` [Compound 385], for which the “Plant response rating, Beggarticks, Bip.” value in the test with bipinnate beggarticks (62 g ai/ha, scale 0 to 100) turned out to be 0; with bipinnate beggarticks (125 g ai/ha, scale 0 to 100), 30; in the test with bipinnate beggarticks (setting [2]), 30. Further, the “Plant response rating, Dallisgrass” value in the test with dallisgrass (62 g ai/ha, scale 0 to 100) came out at 10; with dallisgrass (125 g ai/ha, scale 0 to 100) it was 30; with dallisgrass (setting [2]), 50. Further, in the test with Russian thistle, the “Plant response rating, Thistle” value turned out to be 50.
